Experiments:
FLT3 = biological target: T1, FLT3 (Homo sapiens, UniProt P36888); assay: Binding constant (Kd) measurement, phage-displayed kinase competition binding assay; conditions: for Binding Assay: FLT3(JMminus): FLT3(JMminus) construct
T1 construct: FLT3(DKIN); made in house
T1 sequence (P36888 610-943 limits assumed): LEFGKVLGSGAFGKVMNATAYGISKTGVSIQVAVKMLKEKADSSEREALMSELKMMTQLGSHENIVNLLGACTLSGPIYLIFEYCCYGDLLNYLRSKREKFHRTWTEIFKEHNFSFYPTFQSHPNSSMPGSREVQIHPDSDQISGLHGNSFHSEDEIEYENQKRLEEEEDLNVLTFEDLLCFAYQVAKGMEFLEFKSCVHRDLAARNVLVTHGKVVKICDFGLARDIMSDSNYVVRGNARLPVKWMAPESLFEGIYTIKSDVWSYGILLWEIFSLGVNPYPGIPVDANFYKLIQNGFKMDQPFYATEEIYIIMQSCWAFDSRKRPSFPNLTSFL
Description: Binding Constant (Kd) Measurements for Small-Molecule-Kinase Interactions
The term “ND” represents non-determined values.

MV4,11 cells = assay: FLT3 assay using MV4,11 cells (cellular proliferation, MTS); type: cell-based, human; conditions: cell assay code CS0001; for IC50: Homo sapiens, MV4-11
Procedure: The ability of FLT3 kinase inhibitors to inhibit cellular proliferation was also examined. MV4:11 was a cell line derived from a patient with acute myelogenous leukemia.
FLT3 Assay Using MV4,11 Cells
MV4,11 cells were grown in an incubator @ 37° C. in 5% CO2 in Medium 2 (RPMI, 10% FBS, 4 mM glutamine, Penn/Strep). The cells were counted daily and the cell density was kept between 1e5 and 8e5 cells/ml.
Day One: Enough cells were harvested for experiments to be conducted in 50 ml conical tubes. The harvested cells were spun at 500 g for 5 min at 4° C., the supernatant was then aspirated and the cells were resuspended in the starting volume of 1×PBS. The cells were again spun at 500 g for 5 min at 4° C. and the supernatant again aspirated. The cells were then resuspended in medium 3 (DMEM w/ glut, 10% FBS, Penn/Strep) to a density of 4e5 cells/ml and incubated (37° C. in 5% CO2 O/N.
Day Two: The cells were counted and enough medium 3 was added to decrease density to 2e5 cells/ml. 50 ul (10,000 cells) was aliquoted into each well of a 96 well optical plate using multichannel pipetman. The compound plate was then set up by aliquoting 3 μl of negative control (DMSO) into column 1 of a 96 well 300 ul polypropylene plate, aliquoting 3 μt of positive control (10 mM AB20121) into column 12 of plate, and aliquoting 3 μl of appropriate compounds from serial dilutions into columns 2-11. To each well, 150 μl of Medium 3 was added and 50 μl of compound/medium mixture from compound plate into rows of optical plate in duplicate. The cells were then incubated @ 37° C. in 5% CO2 for 3 days.
Day Five: MTS was thawed in a H2O bath. 20 μl of MTS was added to each well of optical plate and the cells were incubated (37° C. in 5% CO2 for 2 hours. The plate was then placed on a plate shaker for 30 seconds on high speed.

SMILES	Binding Assay: FLT3(DKIN) (FLT3; FLT3(DKIN) construct)	Cell Assay: CS0001:IC50 (MV4,11 cells)	Binding Assay: FLT3(JMminus) (FLT3)	IC50 (MV4,11 cells) [µM]	Kd (FLT3; FLT3(DKIN) construct) [µM]
CC(C)(C)c1cc(NC(=O)Nc2ccc(OCCc3ccc(F)cc3)cc2)no1 [Compound G24]	+ + + +	+ + +	–	–	–
CC(C)(C)c1cc(NC(=O)Nc2ccc(OCCN3CCC(O)CC3)cc2)no1 [Compound G48]	+ + +	+ +	–	–	–
CC(C)(C)c1cc(NC(=O)Nc2ccc(OCc3ccc(C(=O)c4ccccc4)cc3)cc2)no1 [Compound G9]	+ + + +	+ + +	–	–	–
CC(C)(C)c1cc(NC(=O)Nc2ccc(NC(=O)c3nnsc3Sc3ccc(C(F)(F)F)cc3)cc2)no1 [Compound N179]	–	+ + +	+ + +	–	–
CC(C)(C)OC(=O)Nc1ccc(NC(=O)Nc2cc(C(C)(C)C)on2)cc1 [Compound N101]	+ + + +	+ + +	–	–	–
CC(C)(C)c1cc(NC(=O)Nc2ccc(OCCN3CCOCC3)cc2)no1 [Compound G40]	+ + +	+ +	–	–	–
COc1nc(C)cc(C)c1C(=O)Nc1ccc(NC(=O)Nc2cc(C(C)(C)C)on2)cc1 [Compound N22]	+ + + +	+ + +	–	–	–
CC(C)Oc1ccc(NC(=O)Nc2cc(C(C)(C)C)no2)cc1 [Compound G33]	+ + + +	+ + +	–	–	–
CC(C)(C)c1cc(NC(=O)Nc2ccc(NC(=O)C3CCNCC3)cc2)no1 [Compound N150]	+ + +	–	–	> 10	–
COc1cc(OC)nc(C2CCCCC2C(=O)Nc2ccc(NC(=O)Nc3cc(C(C)(C)C)on3)cc2)n1 (centres unmarked) [Compound N129]	–	+ + +	+ + +	–	–
CC(C)c1nnsc1C(=O)Nc1ccc(NC(=O)Nc2cc(C(C)(C)C)on2)cc1 [Compound N182]	–	+ +	+ + +	–	–
CC(C)(C)c1cc(NC(=O)Nc2ccc(NC(=O)c3csc(Cc4cccc(C(F)(F)F)c4)n3)cc2)no1 [Compound N180]	–	+ + +	+ + + +	–	–
COc1cc(NC(=O)c2cn3nc(Cl)ccc3n2)ccc1NC(=O)Nc1cc(C(C)(C)C)on1 [Compound N171]	–	+ + +	+ +	–	–
CC(C)(C)c1cc(NC(=O)Nc2ccc(NC(=O)c3nn(-c4cccc(C(F)(F)F)c4)c(=O)cc3O)cc2)no1 [Compound N185]	–	+ +	+ + +	–	–
CC(C)(C)c1cc(NC(=O)Nc2ccc(OCc3ccc(F)cc3Cl)cc2)no1 [Compound G18]	+ + + +	+ + +	–	–	–
Cc1cc(NC(=O)[C@](C)(O)CSc2ccc(F)cc2)ccc1NC(=O)Nc1cc(C(C)(C)C)on1 [Compound N170]	–	+ + +	+ + + +	–	–

SMILES	Binding Assay: FLT3(DKIN) (FLT3; FLT3(DKIN) construct)	Cell Assay: CS0001:IC50 (MV4,11 cells)	Binding Assay: FLT3(JMminus) (FLT3)	IC50 (MV4,11 cells) [µM]	Kd (FLT3; FLT3(DKIN) construct) [µM]
Cn1cc(C(=O)Nc2ccc(NC(=O)Nc3cc(C(C)(C)C)on3)cc2)c(C(F)(F)F)n1 [Compound N20]	+ + + +	+ + +	–	–	–
CC1CN(CCOc2ccc(NC(=O)Nc3cc(C(C)(C)C)on3)cc2)CC(C)O1 (centres unmarked) [Compound G42]	+ + +	+ +	–	–	–
Cc1noc(-c2ccc(NC(=O)Nc3cc(C(C)(C)C)on3)cc2)n1 [Compound P9]	+ + + +	+ + +	–	–	–
Cc1nccn1CCOc1ccc(NC(=O)Nc2cc(C(C)(C)C)on2)cc1 [Compound G51]	+ + + +	+ + +	–	–	–
CC(C)(C)c1cc(NC(=O)Nc2ccc(NC(=O)c3ccc(-n4cc(-c5ccncn5)cn4)cc3)cc2)no1 [Compound N76]	–	+ + +	+ + +	–	–
Cc1cc(NC(=O)c2cn3nc(Cl)ccc3n2)ccc1NC(=O)Nc1cc(C(C)(C)C)on1 [Compound N169]	–	+ + +	+ + +	–	–
CC(C)(C)c1cc(NC(=O)Nc2ccc(NC(=O)c3cc(O)c4cccc(O)c4n3)cc2)no1 [Compound N176]	–	–	+ + +	> 10	–
CC(C)(C)c1cc(NC(=O)Nc2ccc(NC(=O)c3cnc4cc(C(F)(F)F)ccc4c3O)cc2)no1 [Compound N146]	+ + +	+ + +	–	–	–
CC1CN(CCOc2ccc(NC(=O)Nc3cc(C(C)(C)C)on3)cc2)CCN1 (centres unmarked) [Compound G46]	+ +	+ +	–	–	–
CCOc1ccc(NC(=O)Nc2cc(C(C)(C)C)on2)cc1 [Compound G20]	+ + + +	+ + + +	–	–	–
CC(C)(C)c1cc(NC(=O)Nc2ccc(NC(=O)c3ccc(SC(F)(F)F)cc3)cc2)no1 [Compound N33]	+ + +	–	–	> 10	–
COc1cccc(COc2ccc(NC(=O)Nc3cc(C(C)(C)C)on3)cc2)c1 [Compound G13]	+ + + +	+ + + +	–	–	–
CC(=O)c1c(NC(=O)Nc2ccc(Cl)c(Cl)c2)sc2c1CCCC2 [Compound Z56]	–	+ + +	–	–	> 10
CC(C)(C)c1cc(NC(=O)Nc2ccc(C(=O)Nc3ccc(F)cc3F)cc2)no1 [Compound N153]	+ + + +	+ + +	–	–	–
O=C(c1cc2ccccc2[nH]1)c1cc2cc(O)ccc2[nH]1	+ + + +	+ + +	–	–	–

Further lines, results first:

Binding Assay: FLT3(DKIN) (FLT3; FLT3(DKIN) construct)	Cell Assay: CS0001:IC50 (MV4,11 cells)	Binding Assay: FLT3(JMminus) (FLT3)	IC50 (MV4,11 cells) [µM]	Kd (FLT3; FLT3(DKIN) construct) [µM]	SMILES
–	+ + +	+ + +	–	–	CC(C)(C)c1cc(C(=O)Nc2ccc(NC(=O)Nc3cc(C(C)(C)C)on3)cc2)n(-c2ccccc2)n1 [Compound N78]
+ + +	+ + +	–	–	–	CC(C)(C)c1cc(NC(=O)Nc2ccc(NC(=O)c3cc(Cl)cc(Cl)c3)cc2)no1 [Compound N29]
+ + +	+ +	–	–	–	CC(C)(C)c1cc(NC(=O)Nc2ccc(NC(=O)c3ncccc3C(N)=O)cc2)no1 [Compound N6]
+ + +	+ +	–	–	–	CC(C)(C)c1cc(NC(=O)Nc2ccc(NC(=O)c3cccc(Br)c3)cc2)no1 [Compound N24]
+ + + +	+ + + +	–	–	–	CC(C)(C)c1cc(NC(=O)Nc2ccc(NC(=O)c3ncc[nH]3)cc2)no1 [Compound N13]
+ + + +	+ + + +	–	–	–	CC(C)(C)c1cc(NC(=O)Nc2ccc(NC(=O)c3nccc4ccccc34)cc2)no1 [Compound N117]
+ + + +	+ + +	–	–	–	CC(C)(C)c1cc(NC(=O)Nc2ccc(NC(=O)c3ccc4cccnc4n3)cc2)no1 [Compound N144]
+ + +	+ +	–	–	–	CC(C)(C)c1cc(NC(=O)Nc2ccc(NC(=O)Cc3ccccc3)cc2)no1 [Compound N35]
+ + + +	+ + +	–	–	–	CC(C)(C)c1cc(NC(=O)Nc2ccc(NC(=O)c3cnn(-c4cccc(Cl)c4)c3Br)cc2)no1 [Compound N45]
+ +	+ +	–	–	–	Cn1nc(-c2ccccc2)c(C(=O)Nc2ccc(NC(=O)Nc3cc(C(C)(C)C)on3)cc2)c1Cl [Compound N11]
+ + + +	+ + +	–	–	–	COC(=O)c1cccc(COc2ccc(NC(=O)Nc3cc(C(C)(C)C)on3)cc2)c1 [Compound G7]
+ +	+ +	–	–	–	CC(C)(C)c1cc(NC(=O)Nc2ccc(NC(=O)CC(N)c3ccccc3Cl)cc2)no1 (centres unmarked) [Compound N44]
+ + + +	+ + +	–	–	–	CC(C)(C)c1cc(NC(=O)Nc2ccc(NC(=O)c3csnn3)cc2)no1 [Compound N14]
+ + + +	+ + +	–	–	–	CC(C)(C)c1cc(NC(=O)Nc2ccc(C(=O)Nc3ccccc3)cc2)no1 [Compound N90]
–	+ + +	+ +	–	–	CC(C)(C)c1cc(NC(=O)Nc2ccc(NC(=O)c3ccccc3O)cc2)no1 [Compound N69]

— patent US20050267182A1, “Urea derivatives as FLT-3 modulators” (Ambit Biosciences Corporation, priority 2003, published 2005)
